Patent US11174245B2, “Benzimidazole compounds and derivatives as EGFR inhibitors” (Boehringer Ingelheim International GmbH, priority 2018, dated 2021)
Where two headings read alike, the source gives them in different places.

Assays:
[1] = biological target: EGFR del19 T790M C797S protein in Ba/F3 cells (Homo sapiens, UniProt P00533, C797S/DEL746-750/T790M); assay: pEGFR assay (AlphaScreen Surefire, EGFR Tyr1068 phosphorylation); assay type: cell-based
Method in brief: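 Transduced Ba/F3 cells, puromycin-selected and grown IL-3 independent, were treated with compound at 60.000 cells/well for 4 h at 37° C. Lysis followed for 20 min at room temperature, and Tyr1068 phospho-EGFR in lysate was detected after 2 h dark incubation. Results are IC50 values.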

EGFR wt = EGFR wt (Homo sapiens (Human), UniProt P00533); assay: Biochemical EGFR inhibition assay (TR-FRET, poly-GT substrate), EGFR wt
Protocol: (§1) Biochemical EGFR Inhibition Assays
(§2) Initially, the inhibitory effect of compounds according to the invention is measured in biochemical assays which measure the phosphorylation activity of EGFR enzyme forms on poly-GT substrate in the presence of different concentrations of ATP (5 μM and 100 μM final assay concentration).
(§3) The following enzyme forms of EGFR are representative examples that can be used in these assays at the given concentrations:
(§4) For the chosen highest assay concentration of 100 μM, 150 nL of compound solution is transferred from a 10 mM DMSO compound stock solution. A series of eleven fivefold dilutions per compound is transferred to the assay plate, compound dilutions are tested in duplicates. DMSO is added as backfill to a total volume of 150 nL. The assay runs on a fully automated robotic system.
(§5) These biochemical EGFR enzyme form compound dose-response assays quantify the kinase activity via phosphorylation of a tagged poly-GT substrate. The results of the assay are provided as IC50 values.

[2] = biological target: EGFR (mutated) 695-1022, T790M, C797S, L858R (Homo sapiens (Human), UniProt P00533, C797S/L858R/T790M); assay: Biochemical EGFR inhibition assay (TR-FRET, poly-GT substrate), EGFR T790M C797S L858R
Protocol: as §1, §2, §3, §4, §5

[3] = read-out: wt (5 μM ATP) IC50, 5 μM ATP
[4] = read-out: LR_TM_CS (5 μM ATP) IC50, 5 μM ATP
[5] = read-out: wt (100 μM ATP) IC50, 100 μM ATP
[6] = read-out: LR_TM_CS (100 μM ATP) IC50, 100 μM ATP

EGFR wt, sequence (P00533 25-1210): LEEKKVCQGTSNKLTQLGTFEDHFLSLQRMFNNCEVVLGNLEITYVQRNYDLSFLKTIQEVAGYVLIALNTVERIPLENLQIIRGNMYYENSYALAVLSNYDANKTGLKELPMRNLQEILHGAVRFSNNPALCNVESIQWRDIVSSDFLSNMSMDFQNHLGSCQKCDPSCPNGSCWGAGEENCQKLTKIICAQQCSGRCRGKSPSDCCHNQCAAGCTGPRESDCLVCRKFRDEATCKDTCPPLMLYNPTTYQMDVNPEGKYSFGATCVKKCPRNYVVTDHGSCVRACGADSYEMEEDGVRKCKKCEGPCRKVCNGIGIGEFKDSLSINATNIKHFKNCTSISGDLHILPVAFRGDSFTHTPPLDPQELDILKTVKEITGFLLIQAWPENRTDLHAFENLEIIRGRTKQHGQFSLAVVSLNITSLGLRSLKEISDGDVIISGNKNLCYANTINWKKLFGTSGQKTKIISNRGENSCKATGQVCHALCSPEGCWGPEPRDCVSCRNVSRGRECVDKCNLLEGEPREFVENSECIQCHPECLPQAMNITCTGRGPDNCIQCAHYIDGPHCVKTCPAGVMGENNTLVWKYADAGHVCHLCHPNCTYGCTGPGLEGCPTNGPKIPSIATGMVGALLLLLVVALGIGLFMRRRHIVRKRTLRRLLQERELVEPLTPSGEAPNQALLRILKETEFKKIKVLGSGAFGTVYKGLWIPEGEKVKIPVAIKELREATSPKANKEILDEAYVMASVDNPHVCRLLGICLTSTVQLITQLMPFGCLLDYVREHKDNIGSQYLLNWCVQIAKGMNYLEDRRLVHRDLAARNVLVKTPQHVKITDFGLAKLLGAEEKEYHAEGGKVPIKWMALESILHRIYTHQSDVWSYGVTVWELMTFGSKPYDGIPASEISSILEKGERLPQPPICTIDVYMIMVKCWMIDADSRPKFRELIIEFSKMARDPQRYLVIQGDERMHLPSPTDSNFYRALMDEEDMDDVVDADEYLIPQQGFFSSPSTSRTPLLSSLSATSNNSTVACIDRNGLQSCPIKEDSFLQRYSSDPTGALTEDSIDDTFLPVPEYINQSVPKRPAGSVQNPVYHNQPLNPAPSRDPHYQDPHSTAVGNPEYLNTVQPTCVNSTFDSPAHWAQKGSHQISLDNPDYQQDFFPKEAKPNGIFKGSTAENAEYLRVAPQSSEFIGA
EGFR del19 T790M C797S protein in Ba/F3 cells, sequence (P00533 with tags, fused parts or gaps C797S/DEL746-750/T790M limits assumed): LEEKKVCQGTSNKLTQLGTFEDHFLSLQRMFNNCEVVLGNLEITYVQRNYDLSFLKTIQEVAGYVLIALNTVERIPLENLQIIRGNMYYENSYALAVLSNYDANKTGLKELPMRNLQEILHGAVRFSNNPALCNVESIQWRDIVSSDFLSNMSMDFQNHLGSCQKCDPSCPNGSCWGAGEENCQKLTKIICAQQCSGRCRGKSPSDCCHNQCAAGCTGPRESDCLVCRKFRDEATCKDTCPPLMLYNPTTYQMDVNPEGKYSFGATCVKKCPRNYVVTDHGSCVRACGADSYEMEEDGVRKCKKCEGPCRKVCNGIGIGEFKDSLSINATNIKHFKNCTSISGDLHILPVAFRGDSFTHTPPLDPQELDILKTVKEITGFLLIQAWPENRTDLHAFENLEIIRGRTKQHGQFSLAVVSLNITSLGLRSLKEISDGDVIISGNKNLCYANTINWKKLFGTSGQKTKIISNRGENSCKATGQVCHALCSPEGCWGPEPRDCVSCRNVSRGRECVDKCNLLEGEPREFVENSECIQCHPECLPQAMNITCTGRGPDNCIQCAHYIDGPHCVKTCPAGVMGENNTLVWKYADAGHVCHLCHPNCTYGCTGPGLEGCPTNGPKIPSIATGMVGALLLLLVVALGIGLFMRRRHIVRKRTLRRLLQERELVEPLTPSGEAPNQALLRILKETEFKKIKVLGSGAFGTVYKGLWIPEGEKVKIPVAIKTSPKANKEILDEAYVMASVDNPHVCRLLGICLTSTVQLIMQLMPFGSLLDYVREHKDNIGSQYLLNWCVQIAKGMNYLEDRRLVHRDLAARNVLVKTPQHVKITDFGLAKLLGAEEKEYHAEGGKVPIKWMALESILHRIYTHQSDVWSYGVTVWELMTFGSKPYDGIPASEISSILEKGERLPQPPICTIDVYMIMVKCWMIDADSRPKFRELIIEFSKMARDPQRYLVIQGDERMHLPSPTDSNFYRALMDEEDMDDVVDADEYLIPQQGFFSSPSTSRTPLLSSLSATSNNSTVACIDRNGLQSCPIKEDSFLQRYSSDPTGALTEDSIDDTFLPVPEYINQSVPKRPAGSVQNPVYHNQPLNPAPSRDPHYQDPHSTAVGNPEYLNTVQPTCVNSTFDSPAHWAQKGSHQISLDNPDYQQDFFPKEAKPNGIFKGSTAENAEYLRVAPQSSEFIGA
EGFR (mutated) 695-1022, T790M, C797S, L858R, sequence (P00533 695-1022 T790M/C797S/L858R): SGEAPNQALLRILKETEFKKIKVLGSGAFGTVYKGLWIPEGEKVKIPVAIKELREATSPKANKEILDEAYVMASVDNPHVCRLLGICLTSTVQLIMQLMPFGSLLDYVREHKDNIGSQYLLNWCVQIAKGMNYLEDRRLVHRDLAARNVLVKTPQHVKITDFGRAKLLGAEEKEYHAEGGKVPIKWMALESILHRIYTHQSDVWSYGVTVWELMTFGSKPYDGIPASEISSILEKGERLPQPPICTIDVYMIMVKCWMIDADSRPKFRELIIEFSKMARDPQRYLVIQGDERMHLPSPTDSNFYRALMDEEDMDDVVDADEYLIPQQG

Row | IC50 [1] [nM] | IC50 (EGFR wt; [3]) [nM] | IC50 [2, 4] [nM] | IC50 (EGFR wt; [5]) [nM] | IC50 [2, 6] [nM] | Compound
1 | 3 | 397 | 1.7 |  |  | Cn1cc(-c2cc(C(=O)/N=c3\[nH]c4cc(CN5CCOCC5)ccc4n3[C@H]3CC[C@@H](O)CC3)cc(C#N)n2)cn1 [I-145]
2 | 2 | 213 | 1 | 6060 | 13.7 | CN(C)Cc1cccc(-c2cc(C(=O)/N=c3\[nH]c4ccccc4n3CC(C)(C)O)ccn2)c1 [I-102]
3 | 14 | 8380 | 4.9 |  |  | CNc1cc(C(=O)/N=c2\[nH]c3ccccc3n2[C@H]2CC[C@@H](O)CC2)cc(-c2cnn(C)c2)n1 [I-215]
4 | 14 | 5800 | 8.1 |  |  | Cc1cc(C(=O)/N=c2\[nH]c3cc(CN4CCOCC4)ccc3n2[C@H]2CCC[C@H](O)C2)cc(-c2cnn(C)c2)n1 [I-209]
5 | 7 | 5010 | 2.7 |  |  | Cc1cc(C(=O)/N=c2\[nH]c3cc(CN4CCOCC4)ccc3n2[C@H]2CC[C@@H](O)CC2)cc(-c2cnn(C)c2)n1 [I-197]
6 | 3 | 110 | 6.9 |  |  | COc1ccccc1-c1cc(C(=O)/N=c2\[nH]c3ccccc3n2[C@@H]2CC[C@H](O)[C@H](O)C2)ccn1 [I-144]
7 | 26 | 539 | 3 |  |  | Cn1cc(-c2cc(C(=O)/N=c3\[nH]c4ccccc4n3[C@H]3C[C@H](O)C[C@H](O)C3)ccn2)cn1 [I-207]
8 | 2 |  |  | 6650 | 18.6 | CN(C)Cc1cccc(-c2cc(C(=O)/N=c3\[nH]c4ccccc4n3[C@H]3CC[C@@H](O)CC3)ccn2)c1 [I-114]
9 | 1 |  |  | 4420 | 3.7 | Cc1ccc2c(c1)[nH]/c(=N\C(=O)c1ccnc(-c3cnn4cccnc34)c1)n2[C@H]1CC[C@@H](O)CC1 [I-110]
10 | 12 | 302 | 4.8 |  |  | O=C(/N=c1\[nH]c2ccccc2n1[C@H]1CC[C@@H](O)CC1)c1ccnc(-c2ccc(F)cc2F)c1 [I-180]
11 | 2 | 231 | 1.2 |  |  | O=C(/N=c1\[nH]c2ccccc2n1[C@H]1CC[C@@H](O)CC1)c1ccnc(-c2cnn(C(F)F)c2)c1 [I-201]
12 | 5 | 1540 | 2.8 |  |  | Cn1cc(-c2cc(C(=O)/N=c3\[nH]c4ccccc4n3[C@H]3CC[C@@H](O)CC3)cc(Cl)n2)cn1 [I-146]
13 | 18 | 77.1 | 7.7 |  |  | COc1ccccc1-c1cc(C(=O)/N=c2\[nH]c3ccccc3n2[C@@H]2CC[C@H](O)[C@@H](O)C2)ccn1 [I-198]
14 | 2 |  | 0.7 | 1800 | 10.3 | COc1ccccc1-c1cc(C(=O)/N=c2\[nH]c3ccccc3n2CC(C)(C)O)ccn1 [I-105]
15 | 1 |  |  | 2420 | 5.8 | O=C(/N=c1\[nH]c2ccccc2n1[C@H]1CC[C@@H](O)CC1)c1ccnc(-c2cnn3cccnc23)c1 [I-115]
16 | 1 | 104 | 0.7 |  |  | Cn1cc(-c2cc(C(=O)/N=c3\[nH]c4ccccc4n3[C@H]3CCC[C@H](O)C3)ccn2)cn1 [I-116]
17 | 6 | 305 | 3.1 |  |  | Cn1cc(-c2cc(C(=O)/N=c3\[nH]c4ccccc4n3[C@H]3CCC[C@@H](O)C3)ccn2)cn1 [I-126]
18 | 12 | 31 | 1.7 |  |  | COc1ccccc1-c1cc(C(=O)/N=c2\[nH]c3cc(CN4CCOCC4)ccc3n2[C@H]2CCC[C@H](O)C2)ccn1 [I-181]
19 | 19 | 1520 | 7.8 |  |  | Cn1cc(-c2cc(C(=O)/N=c3\[nH]c4cc(CCCO)ccc4n3CC(C)(C)O)ccn2)cn1 [I-184]
20 | 1 | 65.6 | 0.7 |  |  | COc1ccccc1-c1cc(C(=O)/N=c2\[nH]c3cc(CN4CCOCC4)ccc3n2CC(C)(C)O)ccn1 [I-060]
21 | 17 | 2670 | 8.1 |  |  | Cn1cc(-c2cc(C(=O)/N=c3\[nH]c4ccccc4n3[C@H]3CC[C@@H](O)CC3)cc(CF)n2)cn1 [I-216]
22 | 6 | 9290 | 26.2 |  |  | Cc1cc(C(=O)/N=c2\[nH]c3ccccc3n2[C@H]2CCC[C@H](O)C2)cc(-c2cnn(C)c2)n1 [I-204]
23 | 11 | 81.6 | 2.8 |  |  | COc1cc(F)ccc1-c1cc(C(=O)/N=c2\[nH]c3ccccc3n2[C@H]2CC[C@@H](O)CC2)ccn1 [I-169]

Row | IC50 [1] [nM] | IC50 (EGFR wt; [3]) [nM] | IC50 [2, 4] [nM] | IC50 (EGFR wt; [5]) [nM] | IC50 [2, 6] [nM] | Compound
24 | 7 | 110 | 10.4 |  |  | O=C(/N=c1\[nH]c2ccccc2n1[C@H]1CC[C@@H](O)CC1)c1ccnc(-c2ccccc2OC(F)F)c1 [I-163]
25 | 9 | 664 | 4.3 |  |  | Cn1cc(-c2cc(C(=O)/N=c3\[nH]c4ccccc4n3[C@H]3CCC[C@H](O)C3)cc(C#N)n2)cn1 [I-210]
26 | 44 | 1660 | 7.4 |  |  | Cn1cc(-c2cc(C(=O)/N=c3\[nH]c4ccccc4n3[C@H]3COC[C@@H](O)C3)ccn2)cn1 [I-191]
27 | 4 | 77.8 | 3.3 |  |  | COc1ccccc1-c1cc(C(=O)/N=c2\[nH]c3cc(CN4CCOCC4)ccc3n2[C@H]2CCC[C@@H](O)C2)ccn1 [I-148]
28 | 10 | 1270 | 5 |  |  | Cn1cc(-c2cc(C(=O)/N=c3\[nH]c4ccccc4n3[C@H]3COC[C@H](O)C3)ccn2)cn1 [I-168]
29 | 4 | 336 | 1.8 | > 100000 | 45.7 | O=C(/N=c1\[nH]c2ccccc2n1[C@H]1CC[C@@H](O)CC1)c1ccnc(-c2ccccc2)c1 [I-107]
30 | 75 | > 100000 | 33 |  |  | Cc1cc(C(=O)/N=c2\[nH]c3ccccc3n2C2CCCS(=O)(=O)C2)cc(-c2cnn(C)c2)n1 (centres unmarked) [I-217]
31 | 5 | 1400 | 3 |  |  | COc1ccncc1-c1cc(C(=O)/N=c2\[nH]c3cc(CN4CCOCC4)ccc3n2[C@H]2CC[C@@H](O)CC2)cc(C#N)n1 [I-196]
32 | 5 |  |  | > 100000 | 178 | CC(C)(O)Cn1/c(=N/C(=O)c2ccnc(-c3cccnc3)c2)[nH]c2cc(CC(=O)N3CCCCC3)ccc21 [I-130]
33 | 8 | 2970 | 8.8 |  |  | C#Cc1cc(C(=O)/N=c2\[nH]c3ccccc3n2[C@H]2CC[C@@H](O)CC2)cc(-c2cnn(C)c2)n1 [I-171]
34 | 6 | 1180 | 14.2 |  |  | COc1c(C)cccc1-c1cc(C(=O)/N=c2\[nH]c3ccccc3n2[C@H]2CC[C@@H](O)CC2)ccn1 [I-162]
35 | 11 | 293 | 4 |  |  | O=C(/N=c1\[nH]c2ccccc2n1[C@H]1CC[C@@H](O)CC1)c1ccnc(-c2ccncc2)c1 [I-176]
36 | 7 | 1130 | 4 |  |  | Cn1cc(-c2cc(C(=O)/N=c3\[nH]c4ccccc4n3[C@@H]3CCC[C@H](O)C3)ccn2)cn1 [I-128]
37 | 8 | 1480 | 3.6 |  |  | CC(=O)N1CCC(c2ccc3c(c2)[nH]/c(=N\C(=O)c2cc(C)nc(-c4cnn(C)c4)c2)n3[C@H]2CC[C@@H](O)CC2)CC1 [I-205]
38 | 6 | 56.3 | 1.5 |  |  | COc1ccccc1-c1cc(C(=O)/N=c2\[nH]c3cc(C4CCN(C(C)=O)C4)ccc3n2CC(C)(C)O)ccn1 (centres unmarked) [I-158]
39 | 37 | 12900 | 17.7 |  |  | Cc1cc(C(=O)/N=c2\[nH]c3ccccc3n2[C@@H]2C[C@H](O)C[C@H](O)C2)cc(-c2cnn(C)c2)n1 [I-206]
40 | 22 | 318 | 2.5 |  |  | Cn1cc(-c2cc(C(=O)/N=c3\[nH]c4ccccc4n3C3CCCS(=O)(=O)C3)ccn2)cn1 (centres unmarked) [I-212]
41 | 1 | 249 | 0.3 |  |  | Cn1cc(-c2cc(C(=O)/N=c3\[nH]c4ccccc4n3[C@H]3CC[C@@H](O)CC3)cc(N)n2)cn1 [I-211]
42 | 3 | 34.5 | 0.7 |  |  | COc1ccccc1-c1cc(C(=O)/N=c2\[nH]c3ccccc3n2[C@H]2CCC[C@@H](O)C2)ccn1 [I-118]
43 | 4 | 148 | 8.5 |  |  | COc1ccccc1-c1cc(C(=O)/N=c2\[nH]c3ccccc3n2[C@H]2CC[C@H](O)[C@H](O)C2)ccn1 [I-149]
44 | 38 | 9660 | 10.1 |  |  | Cc1cc(C(=O)/N=c2\[nH]c3ccc(CN4CCN(C)CC4)cc3n2CC(C)(C)O)cc(-c2cnn(C)c2)n1 [I-214]
45 | 3 |  |  | 14600 | 24.3 | Cn1cc(-c2cc(C(=O)/N=c3\[nH]c4cc(C5CCN(C6CC6)CC5)ccc4n3CC(C)(C)O)ccn2)cn1 [I-042]
46 | 5 | > 100000 | 118 |  |  | CC(C)(O)Cn1/c(=N/C(=O)c2ccnc(-c3cccnc3)c2)[nH]c2cc(CCO)ccc21 [I-056]
